Values of other authors, collected in patent publication US20260232672A1, “COMPOSITIONS AND METHODS OF TREATING FEMALE SEXUAL DYSFUNCTION AND FEMALE SEXUAL AROUSAL DISORDER” (Daré Bioscience, Inc., priority 2023, published 2026).

System: pre- and postmenopausal women afflicted with broad-spectrum FSD
Conditions: oral

CCCc1nn(C)c2c(=O)[nH]c(-c3cc(S(=O)(=O)N4CCN(C)CC4)ccc3OCC)nc12.O=C(O)CC(O)(CC(=O)O)C(=O)O [oral sildenafil citrate, 1-[4-ethoxy-3-(6,7-dihydro-1-methyl-7-oxo-3-propyl-1H-pyrazolo[4,3-d]pyrimidin-5-yl)phenylsulfonyl]-4-methylpiperazine citrate salt]
rates of side effects (doses 25 mg-100 mg, previous clinical trials in women): high rates of side effects | efficacy versus placebo (published placebo-controlled trials): marginal efficacy versus placebo
